In US20240115705A1, “Regulation of Butyrophilin subfamily 3 member A1 (BTN3A1, CD277)” (The J. Gladstone Institutes, a testamentary trust …, priority 2021, published 2024):

System: Daudi-Cas9 cells
Test: Cancer-T cell co-culture genome-wide CRISPR knockout screen (Vγ9Vδ2 T cell killing)
Type: cell-based, human
Settings: for score: MAGeCK sgRNA test, co-culture screen; for LFC: log-fold change of sgRNA, surviving cells after co-culture vs baseline; for LFC / treat mean: MAGeCK; for treat mean: sgRNA abundance in surviving Daudi-Cas9 KO cells after 24 hours Vγ9Vδ2 T cell co-culture with zoledronate; for high_in_treatment: sgRNA enriched (TRUE) or depleted (FALSE) after T cell co-culture

Question: What does the source list for “BTN2A2_TGTGCACTGGTCTCAGGTA: library sgRNA targeting BTN2A2 (listed as DNA, chemistry not fully specified)”?
Answer: score: 13.201; LFC: 2.0744; treat mean: 4689.1; high_in_treatment: TRUE

Question: With “BTN3A1_AGAGTTGAGAGAAATGGCA: library sgRNA targeting BTN3A1 (listed as DNA, chemistry not fully specified)” as the substance, how does the score read?
Answer: 18.173

Question: And the LFC?
Answer: 2.7951

Question: And the treat mean?
Answer: 4251.1

Question: And the high_in_treatment?
Answer: TRUE

Question: “BTN3A1_AGGGAACTTCTGATGGTAC: library sgRNA targeting BTN3A1 (listed as DNA, chemistry not fully specified)” was tested. Which score did it give?
Answer: 8.7326

Question: And the LFC?
Answer: 1.7308

Question: And the treat mean?
Answer: 3095

Question: What about the high_in_treatment of the same substance?
Answer: TRUE

Question: Which score does the source give for “BTN3A1_CAGGGCGGCGATCCACCTC: library sgRNA targeting BTN3A1 (listed as DNA, chemistry not fully specified)” here?
Answer: 11.298

Question: What about the LFC of the same substance?
Answer: 2.049

Question: What about the treat mean of the same substance?
Answer: 3523.7

Question: What about the high_in_treatment of the same substance?
Answer: TRUE

Question: For “BTN3A1_CTTCTTCAGGAGCGCCCAG: library sgRNA targeting BTN3A1 (listed as DNA, chemistry not fully specified)”, which score is on record?
Answer: 19.78

Question: And the LFC?
Answer: 2.2076

Question: And the treat mean?
Answer: 9150.3

Question: What about the high_in_treatment of the same substance?
Answer: TRUE

Question: How did the score turn out when “BTN3A1_GGGAGCCGGTTACTTCCTG: library sgRNA targeting BTN3A1 (listed as DNA, chemistry not fully specified)” was run?
Answer: 21.24

Question: And the LFC?
Answer: 2.5697

Question: And the treat mean?
Answer: 7249.9

Question: What about the high_in_treatment of the same substance?
Answer: TRUE

Question: For “BTN3A1_GTTGATGTGAAGGGTTACA: library sgRNA targeting BTN3A1 (listed as DNA, chemistry not fully specified)”, which score is on record?
Answer: 9.8596

Question: What about the LFC of the same substance?
Answer: 1.9969

Question: And the treat mean?
Answer: 2842.7

Question: What about the high_in_treatment of the same substance?
Answer: TRUE

Question: “BTN3A1_TGCTGCTTCTTGGGGGAGC: library sgRNA targeting BTN3A1 (listed as DNA, chemistry not fully specified)” was tested. Which score did it give?
Answer: 17.532

Question: And the LFC?
Answer: 2.0651

Question: What about the treat mean of the same substance?
Answer: 8413.1

Question: What about the high_in_treatment of the same substance?
Answer: TRUE

Question: Which results are given for “BTN3A2_ACGTCACAGCCTCTGACAG: library sgRNA targeting BTN3A2 (listed as DNA, chemistry not fully specified)”?
Answer: score: 17.862; LFC: 2.2137; treat mean: 7396.6; high_in_treatment: TRUE

Question: For “BTN3A2_GCGGGATGGCATCACTGCA: library sgRNA targeting BTN3A2 (listed as DNA, chemistry not fully specified)”, which score is on record?
Answer: 15.831

Question: What about the LFC of the same substance?
Answer: 2.3489

Question: And the treat mean?
Answer: 5012.6

Question: And the high_in_treatment?
Answer: TRUE

Question: For “CCDC82_AAGAGCTTGATAGTAACAA: library sgRNA targeting CCDC82 (listed as DNA, chemistry not fully specified)”, which score is on record?
Answer: 7.3303

Question: And the LFC?
Answer: 4.8194

Question: What about the treat mean of the same substance?
Answer: 83.034

Question: And the high_in_treatment?
Answer: TRUE

Question: How did the score turn out when “DKK1_CGCTAGTCCCACCCGCGGA: library sgRNA targeting DKK1 (as printed in the source, key not given here)” was run?
Answer: 6.0866

Question: What about the LFC of the same substance?
Answer: 1.0785

Question: What about the treat mean of the same substance?
Answer: 4197.4

Question: What about the high_in_treatment of the same substance?
Answer: TRUE

Question: What does the source list for “DNLZ_CAGCTCGTCTACACCTGCA: library sgRNA targeting DNLZ (as printed in the source, key not given here)”?
Answer: score: 6.2683; LFC: −8.2244; treat mean: 6.7801; high_in_treatment: FALSE

Question: Which score does the source give for “EEFSEC_TCACGCTGGTCGACTGCCC: library sgRNA targeting EEFSEC (listed as DNA, chemistry not fully specified)” here?
Answer: 6.5622

Question: And the LFC?
Answer: −8.5255

Question: And the treat mean?
Answer: 6.8247

Question: And the high_in_treatment?
Answer: FALSE

Question: For “EEFSEC_TCATCCGGACCATCATCGG: library sgRNA targeting EEFSEC (listed as DNA, chemistry not fully specified)”, which score is on record?
Answer: 6.18

Question: What about the LFC of the same substance?
Answer: −4.9819

Question: And the treat mean?
Answer: 83.299

Question: What about the high_in_treatment of the same substance?
Answer: FALSE

Question: What does the source list for “FBXW7_AGGTTTCATACACAGTCCA: library sgRNA targeting FBXW7 (as printed in the source, key not given here)”?
Answer: score: 7.629; LFC: 1.4859; treat mean: 3314.5; high_in_treatment: TRUE

Question: For “FBXW7_TGAAGTCTCGTTGAAACTG: library sgRNA targeting FBXW7 (as printed in the source, key not given here)”, which score is on record?
Answer: 6.8093

Question: And the LFC?
Answer: 1.4811

Question: And the treat mean?
Answer: 2652.5

Question: And the high_in_treatment?
Answer: TRUE

Question: With “FBXW7_TTCTTCCAACTGTCCTTGC: library sgRNA targeting FBXW7 (as printed in the source, key not given here)” as the substance, how does the score read?
Answer: 7.5154

Question: And the LFC?
Answer: 1.1042

Question: What about the treat mean of the same substance?
Answer: 6114.5

Question: What about the high_in_treatment of the same substance?
Answer: TRUE

Question: For “FCRL2_ACTATTTCTGTAGTACCAA: library sgRNA targeting FCRL2 (listed as DNA, chemistry not fully specified)”, which score is on record?
Answer: 6.1577

Question: What about the LFC of the same substance?
Answer: 2.9186

Question: And the treat mean?
Answer: 417.46

Question: What about the high_in_treatment of the same substance?
Answer: TRUE

Question: For “GGNBP2_GTATGGGAACTAATGTCGC: library sgRNA targeting GGNBP2 (listed as DNA, chemistry not fully specified)”, which score is on record?
Answer: 6.4369

Question: What about the LFC of the same substance?
Answer: 1.4472

Question: And the treat mean?
Answer: 2491.2

Question: What about the high_in_treatment of the same substance?
Answer: TRUE

Question: Which score does the source give for “GMPPB_GCCGTGAGCTACATGTCGC: library sgRNA targeting GMPPB (listed as DNA, chemistry not fully specified)” here?
Answer: 6.4797

Question: What about the LFC of the same substance?
Answer: −2.6559

Question: What about the treat mean of the same substance?
Answer: 627.87

Question: And the high_in_treatment?
Answer: FALSE

Question: How did the score turn out when “GSS_ACCCCAGCTGTGCACCGGT: library sgRNA targeting GSS (listed as DNA, chemistry not fully specified)” was run?
Answer: 6.1722

Question: What about the LFC of the same substance?
Answer: −4.0666

Question: What about the treat mean of the same substance?
Answer: 169.48

Question: What about the high_in_treatment of the same substance?
Answer: FALSE

Question: Which results are given for “GTF2A2_AGCACTGGCTCAGAGGGTC: library sgRNA targeting GTF2A2 (listed as DNA, chemistry not fully specified)”?
Answer: score: 6.6409; LFC: −6.616; treat mean: 29.574; high_in_treatment: FALSE

Question: What does the source list for “HISTIH3J_CACGCAAGGCCACGGTGCC: library sgRNA targeting HIST-1H3J (listed as DNA, chemistry not fully specified)”?
Answer: score: 6.0349; LFC: 1.0769; treat mean: 4138.5; high_in_treatment: TRUE

Question: For “IFFO1_GGCCTGGGTCGTCGCGACC: library sgRNA targeting IFFO1 (as printed in the source, key not given here)”, which score is on record?
Answer: 5.9717

Question: What about the LFC of the same substance?
Answer: 4.5353

Question: What about the treat mean of the same substance?
Answer: 68.011

Question: What about the high_in_treatment of the same substance?
Answer: TRUE

Question: “IFNAR1_TCCATCAGATGCTTGTACG: library sgRNA targeting IFNAR1 (listed as DNA, chemistry not fully specified)” was tested. Which score did it give?
Answer: 7.1422

Question: What about the LFC of the same substance?
Answer: 1.2274

Question: And the treat mean?
Answer: 4399.3

Question: What about the high_in_treatment of the same substance?
Answer: TRUE

Question: For “IRF1_AGCCGAGATGCTAAGAGCA: library sgRNA targeting IRF1 (as printed in the source, key not given here)”, which score is on record?
Answer: 8.1693

Question: What about the LFC of the same substance?
Answer: 1.6173

Question: What about the treat mean of the same substance?
Answer: 3151.9

Question: And the high_in_treatment?
Answer: TRUE

Question: With “IRF1_CACCTCCTCGATATCTGGC: library sgRNA targeting IRF1 (as printed in the source, key not given here)” as the substance, how does the score read?
Answer: 8.8869

Question: What about the LFC of the same substance?
Answer: 1.2122

Question: What about the treat mean of the same substance?
Answer: 7029.4

Question: What about the high_in_treatment of the same substance?
Answer: TRUE

Question: Which score does the source give for “IRF1_CTAGGCCGATACAAAGCAG: library sgRNA targeting IRF1 (as printed in the source, key not given here)” here?
Answer: 9.7786

Question: What about the LFC of the same substance?
Answer: 1.6906

Question: What about the treat mean of the same substance?
Answer: 4103.9

Question: And the high_in_treatment?
Answer: TRUE

Question: For “IRF1_GGAAGCATGCTGCCAAGCA: library sgRNA targeting IRF1 (as printed in the source, key not given here)”, which score is on record?
Answer: 8.5638

Question: And the LFC?
Answer: 1.6107

Question: And the treat mean?
Answer: 3499.5

Question: What about the high_in_treatment of the same substance?
Answer: TRUE

Question: For “IRF1_TGCCTGTTTGTTCCGGAGC: library sgRNA targeting IRF1 (as printed in the source, key not given here)”, which score is on record?
Answer: 11.386

Question: What about the LFC of the same substance?
Answer: 1.4325

Question: What about the treat mean of the same substance?
Answer: 8072.2

Question: And the high_in_treatment?
Answer: TRUE

Question: Which score does the source give for “IRF9_TGTATCAGTTGCTGCCACC: library sgRNA targeting IRF9 (as printed in the source, key not given here)” here?
Answer: 7.0068

Question: And the LFC?
Answer: 1.2192

Question: And the treat mean?
Answer: 4293.9

Question: What about the high_in_treatment of the same substance?
Answer: TRUE

Question: “LUM_TAGAAAACTCCAAGATAAA: library sgRNA targeting LUM (listed as DNA, chemistry not fully specified)” was tested. Which score did it give?
Answer: 8.61

Question: And the LFC?
Answer: 4.64

Question: And the treat mean?
Answer: 171.75

Question: What about the high_in_treatment of the same substance?
Answer: TRUE

Question: With “MED26_CCTCGGAACTCACGGCATG: library sgRNA targeting MED26 (as printed in the source, key not given here)” as the substance, how does the score read?
Answer: 6.025

Question: And the LFC?
Answer: −1.9192

Question: And the treat mean?
Answer: 1185.6

Question: What about the high_in_treatment of the same substance?
Answer: FALSE

Question: With “MRPL9_CTCCACGATGACCGTGCCC: library sgRNA targeting MRPL9 (as printed in the source, key not given here)” as the substance, how does the score read?
Answer: 6.5755

Question: And the LFC?
Answer: −4.3743

Question: What about the treat mean of the same substance?
Answer: 152.42

Question: And the high_in_treatment?
Answer: FALSE
